Reference: patent US7824672B2, “Method for coating living cells” (Emory University, priority 2004, dated 2010)
Residues, ends and D or L forms follow the SMILES beside them. *: point of attachment. Cbz = O=C(OCc1ccccc1)*; CH2F = FC*

How the values were obtained:
[1] = tested on: rat islets; experiment: Viability of encapsulated rat islets after overnight culture; format: cell-based; conditions: nicotinamide 10 mM, Z-VAD.fmk 40 μM
Experimental: Transplantation of islets microencapsulated within a membrane-mimetic barrier. Evaluation of cell viability. Initial experiments used CHO cells as a readily available model system to assess cell viability after encapsulation. Cells were suspended into alginate solution at 6×10^6 cells/mL and then coated with a photopolymerized membrane-mimetic lipid film. Cell viability of >95% at 24 and 48 hours was confirmed using a Live/Dead cell assay (Molecular Probes, Inc.). In the next phase of this effort, we determined the viability of encapsulated rat islets (103). Rat islets were isolated from outbred male Wistar rats and suspended at a concentration of 1000 islets in 0.25 mL of 2% alginate (UP LVM, Pronova Biomedical, Norway). Alginate encapsulated islets were coated with a membrane-mimetic film and after overnight culture viability was graded with respect to the proportion of viable cells within a given islet.

[2] = biotin binding sites; cited from earlier work
[3] = systemic; cited from earlier work
[4] = tested on: islet-induced coagulation; conditions: ex vivo model; cited from earlier work
[5] = tested on: Factor V; conditions: cited from earlier work
[6] = CD39 ATPase activity kinetics (inorganic phosphate release); format: biochemical; conditions: substrate ATP 50-1500 μM; vesicles: molar ratio CD39:POPC 1:33,613
Source text: (§1) We have expressed and purified human CD39 from Pichia pastoris and confirmed both ecto-ATPase and ecto-ADPase activity. […] Briefly, the plasmid carrying the CD39 human coding sequence was provided by Dr. Simon C. Robson (Harvard Medical School, USA). Polymerase chain reaction (PCR) was utilized to add a Kozak sequence flanked by EcoRI to the […] of CD39 and a FLAG tag flanked by XbaI to the 3′ end of CD39. The construct was harbored in pCR 2.1-TOPO (Invitrogen, San Diego, Calif.) and multiplied in One Shot Top10 (Invitrogen). To express CD39 in yeast, the EcoRI/XbaI digestion product was cloned into pPICZ (Invitrogen) and transformed into Pichia pastoris strain SMD1168 (Invitrogen). The expression construct was confirmed through DNA sequencing analysis. P. pastoris cultures were grown at 30° C. and expression induced for 4 days with 0.5% methanol. Cells were harvested, resuspended in breaking buffer, and cell lysates centrifuged to separate membrane and soluble fractions. […] CD39 was extracted from membrane fractions using 1% Igepal CA-630 and purified on anti-FLAG M2 affinity columns (Sigma, Saint Louis, Mo.). Kinetic parameters were measured for both detergent-solubilized CD39 and for protein reconstituted in POPC lipid vesicles at varying molar ratios of CD39 to lipid (1:85,714, 1:33,613, 1:16,806). […] Inorganic phosphate was measured as described by Ames (116). […]

[7] = CD39 ADPase activity kinetics (inorganic phosphate release); format: biochemical; conditions: substrate ADP 50-1500 μM; vesicles: molar ratio CD39:POPC 1:33,613
Source text: as §1

COC(=O)C[C@H](NC(=O)[C@H](C)NC(=O)[C@@H](NC(=O)OCc1ccccc1)C(C)C)C(=O)CF [Z-VAD.fmk] (Cbz-Val-Ala-Asp(OMe)-CH2F)
effect of anti-apoptotic agent on islet viability [1]: important adjuncts for maximizing islet viability

NC(=O)c1cccnc1 [nicotinamide]
effect of anti-apoptotic agent on islet viability [1]: important adjuncts for maximizing islet viability

avidin: biotin binding protein with four biotin binding sites
binding affinity (log) [2]: > 15

heparin
half-life [3]: one hour | concentration that prevented islet-induced coagulation [4]: 4 U/mL blood | enhancement of APC's ability to inactivate Factor V [5]: four-fold

B1: Free CD39: detergent-solubilized human CD39 expressed in Pichia pastoris, FLAG tagged (protein, UniProt P49961 1-510, looked up)
Ectonucleoside triphosphate …: MEDTKESNVKTFCSKNILAILGFSSIIAVIALLAVGLTQNKALPENVKYGIVLDAGSSHTSLYIYKWPAEKENDTGVVHQVEECRVKGPGISKFVQKVNEIGIYLTDCMERAREVIPRSQHQETPVYLGATAGMRLLRMESEELADRVLDVVERSLSNYPFDFQGARIITGQEEGAYGWITINYLLGKFSQKTRWFSIVPYETNNQETFGALDLGGASTQVTFVPQNQTIESPDNALQFRLYGKDYNVYTHSFLCYGKDQALWQKLAKDIQVASNEILRDPCFHPGYKKVVNVSDLYKTPCTKRFEMTLPFQQFEIQGIGNYQQCHQSILELFNTSYCPYSQCAFNGIFLPPLQGDFGAFSAFYFVMKFLNLTSEKVSQEKVTEMMKKFCAQPWEEIKTSYAGVKEKYLSEYCFSGTYILSLLLQGYHFTADSWEHIHFIGKIQGSDAGWTLGYMLNLTNMIPAEQPLSTPLSHSTYVFLMVLFSLVLFTVAIIGLLIFHKPSYFWKDMV
modifications: FLAG tag
notes: detergent-solubilized human CD39 expressed in Pichia pastoris, FLAG tagged
Km [6]: 58.5 µM | Km [7]: 45.8 µM
